# Measured values reported in patent publication US8883749B2, “Transcription factor inhibitors and related compositions, formulations and methods” (The Ohio State University, priority 2009, dated 2014).
# Where two headings read alike, the source gives them in different places.
# Legend:
# Assay in all cases: MTT cell viability assay
# Assay type in all cases: cell-based, human
# [1] = system: PANC-1 pancreatic cancer cells; conditions: PANC-1, MTT, 72 hours, 10% FBS, read-out: half-maximal inhibitory concentration (IC50), cell viability
# Method: (§1) STAT3 activation is important for tumor cell proliferation and survival.
# (§2) The cells were incubated at 37° C. for a period of 72 hours. 3-(4,5-Dimethylthiazolyl)-2,5-diphenyltetrazolium bromide (MTT) viability assay was done according to manufacturer's protocol (Roche Diagnostics, Mannheim, Germany). […] Half-maximal inhibitory concentrations (IC50) were determined using Sigma Plot 9.0 Software (Systat Software Inc., San Jose, Calif.).
# [2] = system: U87 glioblastoma cells; conditions: 72 hours, 10% FBS, read-out: half-maximal inhibitory concentration (IC50), cell viability
# Method: as §1, §2
# [3] = system: SK-BR-3 breast cancer cells; conditions: SK-BR-3, MTT, 72 hours, 10% FBS, read-out: half-maximal inhibitory concentration (IC50), cell viability
# Method: as §1, §2
# [4] = system: U373 glioblastoma cells; conditions: 72 hours, 10% FBS, read-out: half-maximal inhibitory concentration (IC50), cell viability
# Method: as §1, §2
# [5] = system: HPAC pancreatic cancer cells; conditions: 72 hours, 10% FBS, read-out: half-maximal inhibitory concentration (IC50), cell viability
# Method: as §1, §2
# [6] = system: MDA-MB-231 breast cancer cells; conditions: MDA-MB-231, MTT, 72 hours, 10% FBS, read-out: half-maximal inhibitory concentration (IC50), cell viability
# Method: as §1, §2
IC50 [1] [µM],IC50 [2] [µM],IC50 [3] [µM],IC50 [4] [µM],IC50 [5] [µM],IC50 [6] [µM],IC50 ([1]; Homo sapiens) [µM],IC50 ([3]; Homo sapiens) [µM],"IC50 ([4]; Homo sapiens, U373 MG) [µM]",IC50 ([5]; Homo sapiens) [µM],IC50 ([6]; Homo sapiens) [µM],SMILES
> 100,55.1,> 100,52.5,> 100,> 100,,,,,,Cc1ccc(S(=O)(=O)OCC(=O)Nc2ccc(C(=O)O)c(O)c2)cc1 [S3I-201]
,,,,,,5.12,3.31,5.16,2.52,7.48,C[C@H](NC(=O)/C(C#N)=C/c1cccc(Br)n1)c1ccccc1 [WP1066]
